The values below come from patent publication US20190248739A1 (NEWLINK GENETICS CORPORATION, priority 2015, published 2019).

Series [1] is described as follows: pharmacokinetic testing of indoximod prodrugs in liquid formulation in rats. The settings on record: oral solution, 50 mg/kg. In kind it is in vivo.
The nature of series [2]: pharmacokinetic testing of indoximod prodrugs in liquid formulation in mice. To be noted: mice, oral, 50 mg/kg.
Method: Blood samples (0.1-0.2 mL) were collected from the femoral artery port from rats or by retro-orbital bleeding from mice and plasma was immediately collected by centrifugation and stored on dry ice to avoid prodrug hydrolysis after plasma collection. […] The pharmacokinetic parameters reflect the average of individual parameter values obtained from each individual rat (n) or one common parameter from a single pharmacokinetic curve derived from blood samples obtained from a group of mice (n).
The nature of series [3]: hygroscopicity and stability of indoximod and its salts. Type of series: physicochemical. To be noted: Table 2, in % (unit assumed).
The nature of series [4]: solubility of indoximod and its salts in water, buffers and SGF. Type of series: physicochemical. To be noted: 25° C.; for pH of the SGF solution (in brackets): SGF solubility test; for pH of the water solution (in brackets): water solubility test.
The nature of series [5]: crossover pharmacokinetic study of indoximod free base, salts and SDD in cynomolgus monkeys. In kind it is in vivo. The settings on record: for % Increase over indoximod FB (AUC) / % Increase over indoximod FB (Cmax) / AUC(0 −> 48 h) / Cmax: oral. The method, then:
The SDD suspension formulations were prepared in 0.5% methylcellulose (Methocel).

Series [6] in a line: pharmacokinetic testing of indoximod salts in capsule formulation in rats. To be noted: capsules. In kind it is in vivo. The method, then: Three dose levels were investigated: 37, 185 or 500 μmol/kg.
Capsules were manually filled and the composition uniformity of a representative sample of capsules from each batch was verified by weight and by LC-MS/MS to determine the average indoximod content.
Rats were fasted 16 h prior to dosing to eliminate any confounding food effects, and food was returned 2 h after dosing.

[7] abbreviates: both dose levels (275 and 825 μmol/kg).
The mark [8] stands for this setting: 37 μmol/kg, listed as Indoximod hydrochloride salt.
The mark [9] stands for this setting: 185 μmol/kg, listed as Indoximod hydrochloride salt.
[10] abbreviates: 500 μmol/kg, listed as Indoximod hydrochloride salt.
Setting [11] is: listed as Mesylate, methanesulfonate.
The mark [12] stands for this setting: 37 μmol/kg, listed as Indoximod phosphate, phosphate.
[13] abbreviates: 185 μmol/kg, listed as Indoximod phosphate, phosphate.
[14] abbreviates: 500 μmol/kg, listed as Indoximod phosphate, phosphate.

Counter-ions that a name gives are not always drawn. Marks after values point to notes of the source that are not given here.

The term Cmax denotes the peak of the concentration-time curve.

Consider `CC(C)OC(=O)[C@H](N)Cc1cn(C)c2ccccc12` [NLG-1284, isopropyl 1-methyl-D-tryptophanate hydrochloride], for which, in series [1], the “change in indoximod AUC versus indoximod” value is given as “does not produce a significant increase” and the “change in indoximod Cmax versus indoximod” value is listed as “does not produce a significant increase”. Moreover, in series [2], the “change in indoximod AUC versus indoximod” value is “significant increase” and the “change in indoximod Cmax versus indoximod” value is given as “significant increase”.

As for `Cn1cc(C[C@@H](N)C(=O)O)c2ccccc21` [indoximod HCl, (R)-1-carboxy-2-(1-methyl-1H-indol-3-yl)ethan-1-aminium chloride], the “Hygroscopicity (0-80% RH)” value in series [3] (listed as HCl Salt) is recorded as 0.017. Moreover, in series [4] (listed as HCl Salt), the “pH of the SGF solution (in brackets)” value turned out to be 1.03; the “Solubility (25° C., mg/mL) SGF” value is reported as over 200 mg/mL; the “pH of the water solution (in brackets)” value stood at 1.06; the “Solubility (25° C., mg/mL) Water” value is over 200 mg/mL. In series [4] (listed as hydrochloride salt), the “Solubility (25° C., mg/mL) SGF” value is over 200 mg/mL and the “Solubility (25° C., mg/mL) Water” value is over 200 mg/mL. Moreover, in series [5] (setting [7]), the “increase in Cmax compared to indoximod free base capsules” value is listed as 31-65% and the “increase in exposure compared to indoximod free base capsules” value is 37-53%. Also, in series [5] (275 μmol/kg), the “% Increase over indoximod FB (AUC)” value came to 53%, the “% Increase over indoximod FB (Cmax)” value amounted to 65%, the “AUC(0 −> 48 h)” value is 101 ± 18 µM·h and the Cmax was 21.3 ± 8.9 µM. Further, in series [5] (825 μmol/kg), the “% Increase over indoximod FB (AUC)” value turned out to be 37%, the “% Increase over indoximod FB (Cmax)” value is on record as 31%, the “AUC(0 −> 48 h)” value amounted to 173 ± 75 µM·h and the Cmax stood at 33.4 ± 12 µM. Besides, in series [6] (37 μmol/kg), the “% Increase over indoximod Free Base (AUC)” value is listed as −23%, the “% Increase over indoximod Free Base (Cmax)” value is recorded as −40%, the “AUC(0 −> ∞)” value is 299 ± 77 µM·h and the Cmax worked out at 9.5 ± 2 µM. In series [6] (setting [8]), the “% Increase over indoximod Free Base (AUC)” value was “did not show a significant change” and the “% Increase over indoximod Free Base (Cmax)” value was “non-statistically significant decrease”. In series [6] (185 μmol/kg), the “% Increase over indoximod Free Base (AUC)” value is on record as 38%, the “% Increase over indoximod Free Base (Cmax)” value stood at 84%, the “AUC(0 −> ∞)” value worked out at 1493 ± 728 µM·h and the Cmax was determined as 38.4 ± 10 µM. Also, in series [6] (setting [9]), the “% Increase over indoximod Free Base (AUC)” value is listed as “significant increase” and the “% Increase over indoximod Free Base (Cmax)” value is “statistically significant increase”. Also, in series [6] (500 μmol/kg), the “% Increase over indoximod Free Base (AUC)” value was −6%, the “% Increase over indoximod Free Base (Cmax)” value is listed as −42%, the “AUC(0 −> ∞)” value turned out to be 2706 ± 847 µM·h and the Cmax was found to be 44.4 ± 8 µM. For the same compound, in series [6] (setting [10]), the “% Increase over indoximod Free Base (AUC)” value is “did not show a significant change” and the “% Increase over indoximod Free Base (Cmax)” value is given as “statistically significant decrease”.

Take `Cn1cc(C[C@@H](N)C(=O)O)c2ccccc21` [indoximod CH3SO3H, (R)-1-carboxy-2-(1-methyl-1H-indol-3-yl)ethan-1-aminium methanesulfonate]: the “Hygroscopicity (0-80% RH)” value in series [3] (setting [11]) is 0.12*. In series [4] (setting [11]), the “pH of the SGF solution (in brackets)” value turned out to be 1.43; the “Solubility (25° C., mg/mL) SGF” value stood at 6.0 mg/mL; the “pH of the water solution (in brackets)” value is listed as 1.84; the “Solubility (25° C., mg/mL) Water” value is recorded as 5.1 mg/mL. Besides, in series [6] (37 μmol/kg, methanesulfonate), the “% Increase over indoximod Free Base (AUC)” value is given as 38%, the “% Increase over indoximod Free Base (Cmax)” value is listed as 28%, the “AUC(0 −> ∞)” value was found to be 537 ± 194 µM·h and the Cmax is 20.3 ± 2 µM.

As to `Cn1cc(C[C@@H](N)C(=O)O)c2ccccc21` [indoximod H3PO4, (R)-1-carboxy-2-(1-methyl-1H-indol-3-yl)ethan-1-aminium dihydrogen phosphate], the “Hygroscopicity (0-80% RH)” value in series [3] (phosphate) is recorded as 1.7. The “Solubility (25° C., mg/mL) SGF” value in series [4] (phosphate) is recorded as 9.83 (NA) mg/mL. Also, the “Solubility (25° C., mg/mL) Water” value in series [4] (phosphate) is listed as 8.32 (NA) mg/mL. The “% Increase over indoximod Free Base (AUC)” value is “significant increase” in series [6] (setting [12]); 43% in series [6] (37 μmol/kg, phosphate); “significant increase” in series [6] (setting [13]); 34% in series [6] (185 μmol/kg, phosphate); “non-statistically significant decrease” in series [6] (setting [14]); −34% in series [6] (500 μmol/kg, phosphate). The “% Increase over indoximod Free Base (Cmax)” value in series [6] (setting [12]) is listed as “significant increase”; in series [6] (37 μmol/kg, phosphate) it was 40%; in series [6] (setting [13]) it was “significant increase”; in series [6] (185 μmol/kg, phosphate) it was 96%; in series [6] (setting [14]) it was “significant decrease”; in series [6] (500 μmol/kg, phosphate) it was −51%. In addition, the “AUC(0 −> ∞)” value in series [6] (37 μmol/kg, phosphate) worked out at 558 ± 185 µM·h; in series [6] (185 μmol/kg, phosphate) it was 1446 ± 645 µM·h; in series [6] (500 μmol/kg, phosphate), 1902 ± 1288 µM·h. Moreover, the Cmax in series [6] (37 μmol/kg, phosphate) amounted to 22.3 ± 9 µM; in series [6] (185 μmol/kg, phosphate), 40.9 ± 5 µM; in series [6] (500 μmol/kg, phosphate), 37.2 ± 10 µM.

As to `CCOC(=O)[C@H](N)Cc1cn(C)c2ccccc12` [NLG-1283, ethyl 1-methyl-D-tryptophanate hydrochloride], in series [1], the “change in indoximod AUC versus indoximod” value was “increase” and the “change in indoximod Cmax versus indoximod” value was “increase”. Further, in series [2], the “change in indoximod AUC versus indoximod” value is recorded as “decrease” and the “change in indoximod Cmax versus indoximod” value is reported as “decrease”.
